The test system of data set [1] is M. tuberculosis. As to the kind of experiment: High content assay of intracellular M. tuberculosis growth in infected RAW264.7 macrophages. In kind it is cell-based, Mycobacterium tuberculosis H37Rv-LP.
Data set [2] can be described thus: HepG2 cytotoxicity (CellTiter-Glo, 72 h). As to conditions: human. Type of data set: cell-based, human. The procedure, abridged:
(§1)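 HepG2 cells received a 10-point three-fold compound dilution 24 h post-seeding (1% DMSO final), then 72 h exposure in glucose or galactose medium. CellTiter-Glo luminescence normalized to DMSO controls; TC50 (50% viability reduction) from Levenberg–Marquardt curve fits.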

In data set [3] the test system is M. tuberculosis. Put plainly: Minimum inhibitory concentration in liquid medium (axenic culture). In kind it is cell-based, Mycobacterium tuberculosis. As to conditions: Mycobacterium tuberculosis; for IC50: read-out: Anti-tubercular activity in axenic culture IC50.
Data set [4] deals with non-replicating M. tuberculosis. On the set-up: method as in Christophe et al., 2009. As to conditions: ref Christophe et al., 2009; cited from earlier work.
Data set [5] relates to RAW264.7 cells. As to the kind of experiment: Macrophage viability in the same high content assay. As to conditions: for Intracellular RAW TC50 / Intracellular activity Cytotoxicity TC50: infected RAW264.7 macrophages; for Intracellular RAW TC50: SAR tables 4-8; for Intracellular activity Cytotoxicity TC50: 72 h; for selectivity index (SI): HepG2 cells and/or macrophages, cell line not specified.

The test system of another data set is HepG2 cells. As to the kind of experiment: HepG2 cytotoxicity (CellTiter-Glo, 72 h). Type of data set: cell-based, human. As to conditions: for HepG2 cytotoxicity TC50 Galactose / HepG2 cytotoxicity TC50 Glucose: human, 72 h; for selectivity (SI) for HepG2: HepG2 cytotoxicity / intracellular IC50. Summed up:
as §1
A general note: In ATP-based viability assays light output follows the ATP content of the culture.

For data set [6], the system named is M. tuberculosis. Details: method as in PMID 30466326. As to conditions: inhibitor of M. tuberculosis ref 20; cited from earlier work.
The test system of data set [7] is RAW264.7 cells.
Where [8] appears, read: Mycobacterium tuberculosis, RAW264.7, in RAW264.7 macrophages, SAR tables 4-8, read-out: Intracellular Mtb IC50.
Where [9] appears, read: HepG2 cytotoxicity IC50 Galactose.
[10] abbreviates: HepG2 cytotoxicity IC50 Glucose.
The mark [11] stands for this setting: axenic culture, SAR tables 4-8, read-out: Extracellular IC90.
[12] abbreviates: Mycobacterium tuberculosis, RAW264.7, 72 h, M. tuberculosis in RAW264.7 cells, MOI 1, 72 h, read-out: Intracellular activity Anti-tubercular activity IC50.
Where [13] appears, read: 120 h, extracellular, 5 days, OD590.
Setting [14] is: 120 h, extracellular, 5 days, OD590, read-out: Anti-tubercular activity in axenic culture IC90.

Converted amounts (≈) assume the structure as drawn. Where two headings read alike, the source gives them in different places. Marks after values point to notes of the source that are not given here.

As usually defined, the IC50 is the concentration needed to halve the response being measured. As usually defined, the IC90 is the concentration at which the effect reaches the 90% level. Consider `Cc1ccc(OCC(=O)N2CCCc3ccccc32)cc1` [TPN-0006208], for which the 50% inhibitory concentration (IC50) in the data set on M. tuberculosis [1] (setting [8]) was determined as 13 µM. Besides, the IC50 at 72 h in data set [2] (setting [9]) and in data set [2] (setting [10]) was above 100 µM each time. Further, the IC90 in the data set with M. tuberculosis [3] (setting [11]) is above 20 µM. Moreover, the “activity against non-replicating M. tuberculosis” value in data set [4] is recorded as “had activity”. For the same molecule, the “Intracellular RAW TC50” value in the data set with RAW264.7 cells [5] is reported as 86 ± 1.0 ^b µM.
In the case of `O=C(CSc1ccc(Cl)cc1)Nc1ccc(F)c(Cl)c1` [TPN-0006216], the “activity against intracellular M. tuberculosis” value with M. tuberculosis [1] is listed as “good intracellular activity”. Moreover, the IC50 in the data set on M. tuberculosis [1] (setting [12]) is 2.8 ± 0.78 µM; with M. tuberculosis [1] (setting [8]), 2.4 ± 0.5 µM; in the data set with M. tuberculosis [3] (setting [13]), above 20 µM. Further, the IC50 at 72 h in data set [2] (setting [9]) was determined as 33 ± 4 µM; in data set [2] (setting [10]), 44 ± 2 µM. The “HepG2 cytotoxicity TC50 Galactose” value with HepG2 cells is 33 ± 4 ^b µM. Further, in the data set with HepG2 cells, the “HepG2 cytotoxicity TC50 Glucose” value is recorded as 44 ± 2 ^b µM. The IC90 in the data set with M. tuberculosis [3] (setting [14]) is above 20 µM; in the data set on M. tuberculosis [3] (setting [11]), above 20 µM; in the data set with M. tuberculosis [6] it was 6.9 µg/mL (≈ 20.9 µM). In addition, the “Intracellular activity Cytotoxicity TC50” value in the data set on RAW264.7 cells [5] is on record as >100 ^d µM. Also, the entries for the “Intracellular RAW TC50” value with RAW264.7 cells [5] and with RAW264.7 cells [5] (listed as 12) were >100 ^b µM and above 100 µM, respectively. Further, the “selectivity index (TC50/IC50)” value in the data set on RAW264.7 cells [5] (macrophage TC50 / intracellular IC50) is above 42.
For `O=C(Nc1ccc(Cl)cc1)Nc1ccc(Nc2ccccc2)cc1` [TPN-0073077], the IC50 at 72 h in data set [2] (setting [9]) and in data set [2] (setting [10]) was above 100 µM throughout. For the same molecule, the IC90 in the data set with M. tuberculosis [3] (setting [11]) is above 20 µM. Also, in the data set on RAW264.7 cells [7], the “cytotoxicity to macrophages” value is listed as “cytotoxic”. For the same molecule, the “Intracellular RAW TC50” value in the data set with RAW264.7 cells [5] was 68 ± 23 ^b µM.
For `CCc1ccccc1NC(=O)c1c(NC(=O)c2cccc(Cl)c2)sc2c1CCC2` [TPN-0073585], the IC50 in the data set with M. tuberculosis [1] (setting [12]) came out at 0.4 ± 0.11 µM. In the data set on M. tuberculosis [1] (in RAW264.7 macrophages, SAR tables 4-8, listed as 29, read-out: Intracellular Mtb IC50), the IC50 was below 5 µM. In addition, the IC50 at 72 h in data set [2] (setting [9]) is above 25 µM. The same molecule displayed a half-inhibitory concentration (IC50) at 72 h in data set [2] (setting [10]) above 25 µM. In addition, in the data set with HepG2 cells, the “selectivity (SI) for HepG2” value is given as above 60, the “HepG2 cytotoxicity TC50 Galactose” value is reported as >25 ^c µM and the “HepG2 cytotoxicity TC50 Glucose” value is >25 ^c µM. Also, the half-inhibitory concentration (IC50) with M. tuberculosis [3] (setting [13]) was above 5 µM. For the same molecule, in the data set on M. tuberculosis [3] (setting [14]), the 90% effect concentration (IC90) is above 5 µM. Further, the 90% effect concentration (IC90) with M. tuberculosis [3] (setting [11]) was above 5 µM. In addition, in the data set on RAW264.7 cells [5], the “selectivity index (SI)” value is on record as above 10, the “Intracellular activity Cytotoxicity TC50” value is recorded as 9.4 ± 1.9 ^c µM and the “Intracellular RAW TC50” value is on record as 9.4 ± 1.9 ^c µM.
In the case of `COC(=O)c1c(NC(NC(=O)c2cccs2)C(=O)c2ccccc2)sc(C(C)=O)c1C` (stereo not shown) [TPN-0073588], the half-inhibitory concentration (IC50) was 6.5 ± 1.7 µM in the data set with M. tuberculosis [1] (setting [12]), 6.5 ± 1.7 µM in the data set with M. tuberculosis [1] (setting [8]) and above 20 µM with M. tuberculosis [3] (setting [13]). For the same molecule, the figures for the IC50 at 72 h in data set [2] (setting [9]) and in data set [2] (setting [10]) were above 100 µM and 93 ± 5.5 µM, respectively. For the same molecule, the “selectivity (SI) for HepG2” value in the data set on HepG2 cells is recorded as 15. Besides, the “HepG2 cytotoxicity TC50 Galactose” value in the data set on HepG2 cells was >100 ^c µM. Besides, in the data set on HepG2 cells, the “HepG2 cytotoxicity TC50 Glucose” value is recorded as >100 ^b µM. Besides, the IC90 with M. tuberculosis [3] (setting [14]) and in the data set on M. tuberculosis [3] (setting [11]) was above 20 µM each time. In the data set with RAW264.7 cells [5], the “selectivity index (SI)” value is above 10. Also, the “Intracellular activity Cytotoxicity TC50” value in the data set on RAW264.7 cells [5] is 67 ± 8.5 ^b µM. Besides, the “Intracellular RAW TC50” value in the data set with RAW264.7 cells [5] is 67 ± 8.5 ^b µM.

The values above are taken from article PMC8762250, “Identification of Novel Chemical Scaffolds that Inhibit the Growth of Mycobacterium tuberculosis in Macrophages” (Frontiers in Pharmacology, 2022).
